Read-outs that look alike come from different tables or passages of the source.
What was measured:
[1] = test system: Mouse preadipocyte strain 3T3-L1; experiment: Inhibition of differentiation as an indication of acetic acid uptake; format: cell-based; conditions: control (0.01% dimethylsulfoxide) = 100%; for activity at 0.1 µM: Mus musculus, read-out: Rate of Uptake (%) of [2-14C] acetic acid
Method in brief: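 Differentiation is indexed by 1 hr [2-14C]acetic acid incorporation, measured by scintillation counting and given as uptake relative to 0.01% DMSO control (100%). Mouse 3T3-L1 preadipocytes, pre-grown 10 days, received 0.1 μM test substance throughout a 4-day insulin/IBMX/dexamethasone induction, followed by 2 days' maintenance culture.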

Rat white adipocytes = experiment: Stimulation of differentiation of the adipocytes (Oil Red O); format: cell-based; conditions: 100 nM test compound, 5 days, Oil Red O ABS550, control = 100%, blank = 0%, Table 7; for activity at 0.1 µM: Rattus norvegicus, Adipocyte, 120 h, read-out: Rate of Differentiation (%)
Method in brief: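 Oil Red O lipid staining, absorbance 550 nm after DMSO extraction, quantified differentiation of rat white adipocytes exposed 5 days to compound (final 100 nM, 0.1% DMSO) in differentiation medium. Percent differentiation normalised between cell-free blank (0%) and DMSO control (100%).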

Row | Molecule | activity at 0.1 µM ([1]; 0.1 μM test substance) | activity at 0.1 µM (Rat white adipocytes) | activity at 0.1 µM ([1]; 3T3-L1, 0.1 μM test substance) | Rate of Uptake (%) of [2-14C] acetic acid ([1]; 0.1 μM test substance) | Rate of Differentiation (%) (Rat white adipocytes)
1 | O=C(Nc1ccc(-c2ccc([N+](=O)[O-])cc2)cc1)c1cc([N+](=O)[O-])ccc1Cl [Example 9, N-[4-(4-Nitrophenyl)phenyl)-(2-chloro-5-nitrophenyl)carboxamide] | 59.9% | 116% |  |  | 
2 | CCCc1ccc(NC(=O)c2cc([N+](=O)[O-])ccc2Cl)cc1 [Example 15, N-(4-Propylphenyl)-(2-chloro-5-nitrophenyl)carboxamide] |  | 124% | 78.4% |  | 
3 | O=C(Nc1ccc(OC(F)(F)F)cc1)c1cc([N+](=O)[O-])ccc1Cl [Example 18, N-(4-Trifluoromethyloxyphenyl)-(2-chloro-5-nitrophenyl)carboxamide] |  | 115% | 53.8% |  | 
4 | O=C(Nc1cc([N+](=O)[O-])ccc1Cl)c1cc([N+](=O)[O-])ccc1Cl [Example 28, N-(2-Chloro-5-nitrophenyl)-(2-chloro-5-nitrophenyl)carboxamide] | 87.8% | 111% |  |  | 
5 | Cc1ccc(S(=O)(=O)Nc2ccc(NC(=O)c3cc([N+](=O)[O-])ccc3Cl)cc2)cc1 [Example 32, N-[4-(4-Methylbenzene)sulfonylaminophenyl]-(2-chloro-5-nitrophenyl)carboxamide] |  |  |  | 60.5% | 114.6%
6 | O=C(Nc1nc2ccc([N+](=O)[O-])cc2s1)c1cc([N+](=O)[O-])ccc1Cl [Example 34, N-(6-Nitrobenzothiazol-2-yl)-(2-chloro-5-nitrophenyl)carboxamide] | 60.8% | 140% |  |  | 
7 | O=C(Nc1nc(-c2cccs2)cs1)c1cc([N+](=O)[O-])ccc1Cl [Example 36, N-[4-(2-Thienyl)thiazol-2-yl)-(2-chloro-5-nitrophenyl)carboxamide] |  | 111% | 29.2% |  | 
8 | O=C(Nc1nc(-c2ccc(Cl)c(Cl)c2)cs1)c1cc([N+](=O)[O-])ccc1Cl [Example 43, N-[4-(3,4-Dichlorophenyl)thiazol-2-yl]-(2-chloro-5-nitrophenyl)carboxamide] |  | 118% | 56.7% |  | 
9 | O=C(Nc1nccc2ccccc12)c1cc([N+](=O)[O-])ccc1Cl [Example 59, N-(Isoquinolin-1-yl)-(2-chloro-5-nitrophenyl)carboxamide] |  | 121% | 36.3% |  | 
10 | O=C(Nc1nc(Cl)cc(Cl)n1)c1cc([N+](=O)[O-])ccc1Cl [Example 83, N-(4,6-Dichloropyrimidin-2-yl)-(2-chloro-5-nitrophenyl)carboxamide] |  | 114% | 75.6% |  | 
11 | Cc1noc(NS(=O)(=O)c2ccc(NC(=O)c3cc([N+](=O)[O-])ccc3Cl)cc2)c1C [Example 104, N-[4-[(3,4-Dimethylisoxazol-6-yl)aminosulfonyl]phenyl]-(2-chloro-5-nitrophenyl)carboxamide] |  | 115% | 89.8% |  | 
12 | O=C(Nc1ccc(N2CCCCC2)cc1)c1cc([N+](=O)[O-])ccc1Cl [Example 114, N-[4-(Piperidin-1-yl)phenyl]-(2-chloro-5-nitrophenyl)carboxamide] |  | 118% | 79% |  | 
13 | Cc1ccc(C(=O)Nc2ccc(NC(=O)c3cc([N+](=O)[O-])ccc3Cl)cc2)cc1 [Example 121, N-[4-(4-Methylbenzoyl)aminophenyl]-(2-chloro-5-nitrophenyl)carboxamide] |  | 136% | 81% |  | 
14 | Cc1ccc2nc(NC(=O)c3cc([N+](=O)[O-])ccc3Cl)sc2c1 [Example 141, N-(6-Methybenzothiazol-2-yl)-(2-chloro-5-nitrophenyl)carboxamide] |  |  |  | 78.7% | 133.2%
15 | CCc1ccc(S(=O)(=O)Nc2ccc(NC(=O)c3cc([N+](=O)[O-])ccc3Cl)cc2)cc1 [Example 150, N-[4-(4-Ethylbenzenesulfonylamino)phenyl]-(2-chloro-5-nitrophenyl)carboxamide] |  | 137% | 82.9% |  | 
16 | O=C(Nc1ccc(S(=O)(=O)N2CCCCC2)cc1)c1cc([N+](=O)[O-])ccc1Cl [Example 151, N-[4-(Piperidyisulfonyl)phenyl]-(2-chloro-5-nitrophenyl)carboxamide] |  | 118% | 62.3% |  | 
17 | O=C(Nc1ccc(S(=O)(=O)N2CCOCC2)cc1)c1cc([N+](=O)[O-])ccc1Cl [Example 153, N-[4-(Morpholin-4-ylsulfonyl)phenyl]-(2-chloro-5-nitrophenyl)carboxamide] |  | 110% | 70.2% |  | 
18 | N-[3-(Pyrrolidinylsulfonyl)phenyl]-(2-chloro-5-nitrophenyl)carboxamide [Example 154] |  |  |  | 67.4% | 123.8%

Reference: patent US20030134859A1 (SANKYO COMPANY, LIMITED, priority 2000, published 2003)
